{"source": "patent US11786468B2", "about": "“Nanoparticles” (KING'S COLLEGE LONDON, priority 2015, dated 2023)", "key": {"[1]": {"assay": "7T MRI T1/T2 assessment and relaxometry of liposome samples", "assay_type": "physicochemical", "design": "r1: unit not given here", "conditions": "for T1 (s) 1 param / T1 (s) 3 param / T1 (s) Image J / T2 (s) 1 param / T2 (s) Image J / T2 (s) 3 param: 7T", "text": "A series of MRI T1/T2 assessment studies have been carried out using a 7 T pre clinical MRI scanner, with the assistance of Dr Po-Wah So (James Black Centre, KCL). The focus here has been to derive reliable r1/r2 relaxivities per molar Gd(III) for liposome produced using the [Gd]DOTA.DSA, [Gd]DOTA.Ahx.DSA and [Gd]DOTA.Aoc.DSA. This is reliant on both accurate measurements of the T1/T2 effects and also the exact gadolinium concentration in the prepared liposome suspensions. The extrusion and gel filtration processes make this latter hard to estimate, so Inductively Coupled Plasma Mass Spectrometry (ICP-MS) quantification is being assessed. This is turn required testing of suitable acid digestion conditions since the lipid-chelates may not be analysed directly. For both MRI and ICP-MS, commercial Gadovist is being used a positive control contrast agent of known Gd content. Assessment of temperature, buffer salt and liposome size effects on T1/T2 are also underway.\nFIGS. 22 and 23 show Example T1 and T2 brightness traces for controls and liposome samples.\nMRI data (T1, T2 lower is brighter) is shown Table 1:\nComparison of liposomes containing different lipids as measured at 7T Magnet*."}, "[2]": {"assay": "Pharmacokinetics of topotecan in blood by HPLC", "assay_type": "in vivo, Balb C Mice", "conditions": "i.v. tail vein, concentration matched", "procedure": "Balb C Mice were injected with IgFUS-TNPs encapsulating topotecan (8 mg/kg per mouse body weight) and drug pharmacokinetics monitored by blood sample analyses. Blood samples (50-100 μL) were collected at time intervals (2 min-4 h) and transferred into pre-weighed plastic vials containing heparin (5 uL). Cold methanol (100 μL) was added to each and the mixed samples stored over dry ice or at −20° C. until required. After thawing, each vial was weighed again and the difference used to estimate then original sample volume. […] Batches of 5 samples were analysed three times using an Agilent 1100 HPLC equipped with a cooled sample chamber (8-12° C.), a guarded Thermo Hypersil 30×4.6 mm, 5 μm C18 column, a Diode Array Detector (UV/vis absorbance) and an Agilent 1260 Infinity fluorescence detector. […] Detection was by absorbance (210/254/280 nm for proteins and other biologicals; 380 nm for topotecan; all using a bandwidth of 8 nm c.p. reference at 700 nm) and fluorescence (Ex 400 nm; Em 545 nm; PMT-gain 18). Injections were 5-20 μL depending on the sample concentrations and quantifications were calculated from the fluorescence peak areas after calibration (the detector response was effectively linear over the sensitive range). Topotecan could be reliably identified even at extremely low concentrations (10-20 ng/mL) by its intrinsic fluorescence and retention time (3.33±0.03 min; N=45). […]"}, "[3]": {"conditions": "19.6 °C, conc >0.3 mM, dil not given"}, "[4]": {"conditions": "19.6 °C, dil 1 (liposomes 20 mg/mL; Gadovist 3.1 or 3 mM), Gadovist 3 mM"}, "[5]": {"conditions": "19.6 °C, dil 1 (liposomes 20 mg/mL; Gadovist 3.1 or 3 mM), Gadovist 3.1 mM"}, "[6]": {"conditions": "35.5 °C, conc >0.3 mM, dil not given"}}, "note": "Where “and” joins values, the source holds several entries; their conditions need not be identical. Identical values can stand only once."}
{"smiles": "O=C([O-])CN1CCN(CC(=O)[O-])CCN([C@H](CO)[C@H](O)CO)CCN(CC(=O)[O-])CC1.[Gd+3]", "note": "(racemic) [Gadovist]", "values": [{"measurement": "T1 (s) 1 param", "setting": "[1]; [3]", "value": 2.033, "unit": "s"}, {"measurement": "T1 (s) 3 param", "setting": "[1]; [3]", "value": 2.061, "unit": "s"}, {"measurement": "T1 (s) Image J", "setting": "[1]; [3]", "value": 2.061, "unit": "s"}, {"measurement": "T2 (s) 1 param", "setting": "[1]; [3]", "value": 0.206, "unit": "s"}, {"measurement": "T2 (s) Image J", "setting": "[1]; [3]", "value": 0.1, "unit": "s"}, {"measurement": "T1 (s) 1 param", "setting": "[1]; [4]", "value": 0.09174, "unit": "s"}, {"measurement": "T1 (s) 3 param", "setting": "[1]; [4]", "value": 0.07712, "unit": "s"}, {"measurement": "T1 (s) Image J", "setting": "[1]; [4]", "value": 0.092, "unit": "s"}, {"measurement": "T2 (s) 1 param", "setting": "[1]; [4]", "value": 0.04691, "unit": "s"}, {"measurement": "T2 (s) 3 param", "setting": "[1]; [4]", "value": 0.0488, "unit": "s"}, {"measurement": "T2 (s) Image J", "setting": "[1]; [4]", "value": 0.047, "unit": "s"}, {"measurement": "T1 (s) 1 param", "setting": "[1]; [5]", "value": 0.072, "unit": "s"}, {"measurement": "T1 (s) 3 param", "setting": "[1]; [5]", "value": 0.084, "unit": "s"}, {"measurement": "T1 (s) Image J", "setting": "[1]; [5]", "value": 0.084, "unit": "s"}, {"measurement": "T2 (s) 1 param", "setting": "[1]; [5]", "value": "0.0431 s and 0.0426 s"}, {"measurement": "T2 (s) 3 param", "setting": "[1]; [5]", "value": "0.0422 s and 0.0419 s"}, {"measurement": "T2 (s) Image J", "setting": "[1]; [5]", "value": 0.042, "unit": "s"}, {"measurement": "T1 (s) 1 param", "setting": "[1]; [6]", "value": 2.602, "unit": "s"}, {"measurement": "T1 (s) 3 param", "setting": "[1]; [6]", "value": 2.617, "unit": "s"}, {"measurement": "T1 (s) Image J", "setting": "[1]; [6]", "value": 2.606, "unit": "s"}, {"measurement": "T2 (s) 1 param", "setting": "[1]; [6]", "value": 0.153, "unit": "s"}, {"measurement": "T2 (s) Image J", "setting": "[1]; [6]", "value": 0.1, "unit": "s"}, {"measurement": "T1 (s) 1 param", "setting": "[1]; 39.5 °C, dil 1 (Gadovist 3 mM)", "value": 0.1297, "unit": "s"}, {"measurement": "T1 (s) 3 param", "setting": "[1]; 39.5 °C, dil 1 (Gadovist 3 mM)", "value": 0.1138, "unit": "s"}, {"measurement": "T1 (s) Image J", "setting": "[1]; 39.5 °C, dil 1 (Gadovist 3 mM)", "value": 0.13, "unit": "s"}, {"measurement": "T2 (s) 1 param", "setting": "[1]; 39.5 °C, dil 1 (Gadovist 3 mM)", "value": 0.05335, "unit": "s"}, {"measurement": "T2 (s) 3 param", "setting": "[1]; 39.5 °C, dil 1 (Gadovist 3 mM)", "value": 0.05578, "unit": "s"}, {"measurement": "T2 (s) Image J", "setting": "[1]; 39.5 °C, dil 1 (Gadovist 3 mM)", "value": 0.053, "unit": "s"}, {"measurement": "r1", "setting": "[1]; measured at 7T Magnet", "value": 4.8}]}
{"smiles": "CC[C@@]1(O)C(=O)OCc2c1cc1n(c2=O)Cc2cc3c(CN(C)C)c(O)ccc3nc2-1", "note": "[topotecan]", "values": [{"measurement": "drug clearance from the blood pool", "setting": "[2]", "value": "cleared from the blood pool in mins"}]}
